One data set has as its system HepG2. The data set is described as follows: Cytotoxicity against human HepG2 cells assessed as cell viability after 24 hrs by MTT assay. The class given is functional, cell-based. As to conditions: HepG2, 24 h. (In general: Tetrazolium dyes change colour on reduction, which living cells bring about.)
Data set [1] can be described thus: Cytotoxicity against human HCT116 cells assessed as cell viability after 24 hrs by MTT assay. The class given is functional, cell-based. The note with it: HCT-116, 24 h.
Data set [2] relates to MCF7. The data set is described as follows: Antiproliferative activity against human MCF7 cells after 48 hrs by SRB assay. The class given is functional, cell-based. On the technique in general: The SRB assay estimates cell density from bound dye.
The nature of data set [3]: Antiproliferative activity against human HSC3 cells. In kind it is functional, cell-based. The note with it: HSC-3.
The nature of data set [4]: Antiproliferative activity against human Hep3B cells. The class given is functional, cell-based, Hep 3B2.
The nature of data set [5]: Antiproliferative activity against human H460 cells. As to conditions: NCI-H460. The class given is functional, cell-based.
Data set [6] can be described thus: Antiproliferative activity against human CH27 cells. The class given is functional, cell-based.
In a further data set the test system is M21. Put plainly: Antiproliferative activity against human M21 cells. In kind it is functional, cell-based.
The subject of a further data set is A549. The data set is described as follows: Antiproliferative activity against human A549 cells. The class given is functional, cell-based.
Data set [7] concerns the target Proto-oncogene tyrosine-protein kinase Src (Homo sapiens, UniProt P12931). Put plainly: Inhibition of c-Src (unknown origin).
Data set [8] has as its target Vascular endothelial growth factor receptor 2 (Homo sapiens, UniProt P35968). The data set is described as follows: Inhibition of VEGFR2 (unknown origin).
The subject of data set [9] is MCF7. The data set is described as follows: Antiproliferative activity against human MCF7 cells.
The nature of data set [10]: Inhibition of alpha-glucosidase (unknown origin). On the set-up: species or system Homo sapiens.
In data set [11] the test system is Mycobacterium tuberculosis. The data set is described as follows: Antitubercular activity against Mycobacterium tuberculosis H37Rv assessed as growth inhibition. The class given is functional.
The subject of another data set is Escherichia coli. Put plainly: Antibacterial activity against Escherichia coli MTCC 443 assessed as growth inhibition at 100 ug/ml by agar well diffusion method. The note with it: read-out: GI. In kind it is functional. (A growth-free zone around the sample is the usual read-out of agar diffusion tests.)
The next data set concerns Pseudomonas aeruginosa. Put plainly: Antibacterial activity against Pseudomonas aeruginosa MTCC 741 assessed as growth inhibition at 100 ug/ml by agar well diffusion method. In kind it is functional. The note with it: read-out: GI.
The test system of data set [12] is Staphylococcus epidermidis. Put plainly: Antibacterial activity against Staphylococcus epidermidis MTCC 435 assessed as growth inhibition at 100 ug/ml by agar well diffusion method. The class given is functional. As to conditions: read-out: GI.
The test system of a further data set is Staphylococcus aureus. Put plainly: Antibacterial activity against Staphylococcus aureus MTCC 96 assessed as growth inhibition at 100 ug/ml by agar well diffusion method. The note with it: read-out: GI. In kind it is functional.
Data set [13] in a line: Antiproliferative activity against human PC3 cells by MTT assay. The class given is functional, cell-based. The note with it: PC-3.
Data set [14] concerns MCF7. Put plainly: Potency index, ratio of cisplatin IC50 to compound IC50 for human MCF7 cells. In kind it is functional.
A further data set deals with Rattus norvegicus. Put plainly: Antiinflammatory activity in rat assessed as inhibition of carrageenan-induced paw edema at 25 to 200 mg/kg, po administered 1 hr before carrageenan challenge measured at 6 hrs. As to conditions: dose mg/kg 25-200. The class given is functional. On the set-up: scale not given: the % may be the effect or the level left.
Data set [15] in a line: Protective index, ratio of neurotoxicity in mouse by rotarod test to ED50 for inhibition of maximal electroshock-induced seizures in mouse. As to conditions: in vivo, read-out: PI. In kind it is toxicity, organism-based.
A further data set relates to RAW264.7. The data set is described as follows: Antiinflammatory activity in mouse RAW264.7 cells assessed as inhibition of LPS-induced nitric oxide production at 20 ug/ml after 24 hrs by Griess method. The class given is functional. As to conditions: RAW264.7, 24 h.
Data set [16] can be described thus: Antiproliferative activity against human NCI60 cells. In kind it is functional.
The subject of another data set is SNB-75. The data set is described as follows: Growth inhibition of human SNB75 cells after 48 hrs by SRB assay. The class given is functional. As to conditions: SNB-75, 48 h.
For data set [17], the system named is PC-3. Put plainly: Induction of apoptosis in human PC3 cells at 10 uM after 72 hrs by Hoechst 33258 staining. The class given is functional.
Data set [18] concerns PC-3. The data set is described as follows: Induction of apoptosis in human PC3 cells at 1 uM after 72 hrs by Hoechst 33258 staining. In kind it is functional.
Data set [19] is described as follows: Antiproliferative activity against human BGC823 cells by MTT assay. The class given is functional, cell-based. As to conditions: BGC-823.
For data set [20], the system named is Bcap37. Put plainly: Antiproliferative activity against human Bcap37 cells by MTT assay. In kind it is functional, cell-based.
Data set [21] in a line: Antiproliferative activity against human BGC823 cells at 10 uM by MTT assay. The note with it: BGC-823. The class given is functional.
For data set [22], the system named is Bcap37. Put plainly: Antiproliferative activity against human Bcap37 cells at 10 uM by MTT assay. In kind it is functional.
Data set [23] in a line: Antiproliferative activity against human PC3 cells at 10 uM by MTT assay. In kind it is functional. As to conditions: PC-3.
A short description of data set [24]: Inhibition of Mycobacterium tuberculosis GlmU.

≈ marks a conversion by molar mass, not a printed value. Some results are limits rather than exact numbers.

By IC50 is commonly meant the concentration that inhibits the measured activity by half. The inhibition is the relative decrease from the control value, in per cent. Usually GI50 stands for the concentration at which growth is held to half of that of the control.

Sequence of Vascular endothelial growth factor receptor 2 (P35968 whole entry): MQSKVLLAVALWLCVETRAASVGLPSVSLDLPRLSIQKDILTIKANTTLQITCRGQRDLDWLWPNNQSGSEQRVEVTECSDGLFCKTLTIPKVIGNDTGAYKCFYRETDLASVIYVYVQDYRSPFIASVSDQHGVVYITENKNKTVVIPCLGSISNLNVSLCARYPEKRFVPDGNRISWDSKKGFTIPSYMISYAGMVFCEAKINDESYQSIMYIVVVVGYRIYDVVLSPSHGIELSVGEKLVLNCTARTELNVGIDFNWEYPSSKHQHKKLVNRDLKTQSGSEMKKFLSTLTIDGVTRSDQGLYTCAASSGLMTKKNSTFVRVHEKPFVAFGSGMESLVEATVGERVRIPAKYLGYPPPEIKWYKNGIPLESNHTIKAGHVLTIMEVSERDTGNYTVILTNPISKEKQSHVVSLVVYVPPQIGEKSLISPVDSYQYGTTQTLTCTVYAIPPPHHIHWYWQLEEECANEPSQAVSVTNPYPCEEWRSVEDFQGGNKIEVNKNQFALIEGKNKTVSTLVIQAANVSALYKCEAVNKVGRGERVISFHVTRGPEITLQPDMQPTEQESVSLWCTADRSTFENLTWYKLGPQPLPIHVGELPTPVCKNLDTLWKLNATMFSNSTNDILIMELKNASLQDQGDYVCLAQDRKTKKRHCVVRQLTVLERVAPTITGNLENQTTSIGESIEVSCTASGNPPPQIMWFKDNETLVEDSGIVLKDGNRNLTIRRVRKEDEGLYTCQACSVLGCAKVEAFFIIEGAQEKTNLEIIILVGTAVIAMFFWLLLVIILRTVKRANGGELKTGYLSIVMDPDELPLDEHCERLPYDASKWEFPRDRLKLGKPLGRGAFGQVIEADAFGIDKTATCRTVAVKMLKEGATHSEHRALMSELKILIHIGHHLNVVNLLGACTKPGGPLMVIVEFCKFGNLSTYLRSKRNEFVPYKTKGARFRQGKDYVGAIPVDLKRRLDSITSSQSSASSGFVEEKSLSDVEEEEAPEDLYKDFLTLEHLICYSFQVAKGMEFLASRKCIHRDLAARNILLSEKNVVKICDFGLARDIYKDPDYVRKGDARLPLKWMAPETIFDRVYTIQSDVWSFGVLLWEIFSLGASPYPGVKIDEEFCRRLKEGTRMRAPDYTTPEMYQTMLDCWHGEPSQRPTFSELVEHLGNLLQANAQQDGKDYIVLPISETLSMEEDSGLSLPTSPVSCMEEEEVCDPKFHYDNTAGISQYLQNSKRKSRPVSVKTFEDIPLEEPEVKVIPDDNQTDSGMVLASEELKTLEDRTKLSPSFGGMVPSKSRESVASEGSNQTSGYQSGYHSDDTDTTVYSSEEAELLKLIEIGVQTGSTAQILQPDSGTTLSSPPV
Sequence of Proto-oncogene tyrosine-protein kinase Src (P12931 2-536 limits assumed): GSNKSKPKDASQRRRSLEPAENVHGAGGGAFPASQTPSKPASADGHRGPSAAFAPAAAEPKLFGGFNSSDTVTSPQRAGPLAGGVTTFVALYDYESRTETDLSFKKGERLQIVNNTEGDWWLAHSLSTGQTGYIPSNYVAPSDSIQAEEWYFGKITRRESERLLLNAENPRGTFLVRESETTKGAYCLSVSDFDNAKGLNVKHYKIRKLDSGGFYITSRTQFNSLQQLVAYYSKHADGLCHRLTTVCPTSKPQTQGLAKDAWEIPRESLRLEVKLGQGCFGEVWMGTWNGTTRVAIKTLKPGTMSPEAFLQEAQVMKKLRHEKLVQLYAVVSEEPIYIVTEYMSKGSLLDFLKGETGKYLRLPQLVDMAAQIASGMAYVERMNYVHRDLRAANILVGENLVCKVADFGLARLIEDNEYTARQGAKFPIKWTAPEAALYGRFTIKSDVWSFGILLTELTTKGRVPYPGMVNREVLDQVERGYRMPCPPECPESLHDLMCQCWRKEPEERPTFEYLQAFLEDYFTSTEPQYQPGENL

Turning to `CSc1nc2n(n1)c1ccccc1c1nnc(-c3ccncc3)n12`, the values for the half-maximal inhibitory concentration (IC50) (in the data set on HepG2; in data set [1]) were 9.34 µg/mL (≈ 28 µM) and 11.5 µg/mL (≈ 34.5 µM), respectively.

As for `O=C1CCC(=O)N1n1c(COc2ccccc2)nc2ccc(I)cc2c1=O`, in the data set on MCF7 [2], inhibition was half-maximal at 5490 nM (IC50).

`CCOc1nc2nc(SC)nn2c2ccccc12`: the half-maximal inhibitory concentration (IC50) with HepG2 is 19.2 µg/mL (≈ 73.8 µM); in data set [1] it was 17.4 µg/mL (≈ 66.8 µM).

`O=c1[nH]c(-c2ccc3ccccc3c2)nc2ccc(N3CCCC3)cc12`: the IC50 in data set [3] worked out at 40 nM; in [4], 1350 nM; in data set [5] it was 80 nM; in data set [6] it was 50 nM; in the data set on M21 it was 30 nM.

With `COc1ccc2nc(-c3ccc4ccccc4c3)[nH]c(=O)c2c1`, the IC50 in data set [3] worked out at 150 nM; in [4] it was 1940 nM; in data set [5], 70 nM; in data set [6] it was 90 nM; with M21, 90 nM.

Consider `O=C(Cc1cccc(Br)c1)Nc1ccc2ncnc(Nc3ccc(Br)cc3)c2c1`, for which the half-maximal inhibitory concentration (IC50) with A549 amounted to 3420 nM; in data set [7] it was 27.3 nM.

As for `Cc1ncc([N+](=O)[O-])n1CCOc1ncnc2ccccc12`, the IC50 in data set [8] worked out at 2.72 nM; with MCF7 [9] it was 350 nM.

Molecule `O=c1c2cc(-c3c(Cl)cccc3Cl)ccc2nc(C2CC2)n1Cc1cccnc1` showed an IC50 in data set [10] below 10000 nM.

For `NNC(=O)c1ccncc1` [ISONIAZID], in data set [11], the “growth inhibition (GI)” value is recorded as 99%.

`Cc1noc(NS(=O)(=O)c2ccc(-n3c(C)nc4c(I)cc(I)cc4c3=O)cc2)c1C`: the inhibition of growth at 100 µg/mL (in the data set on Escherichia coli; in the data set with Pseudomonas aeruginosa; in [12]; with Staphylococcus aureus) was 61.9% throughout.

In data set [13], `COc1cc2ncnc(Nc3cccc(Br)c3)c2cc1OC` registered an IC50 of 8300 nM.

The molecule `O=C(Nc1ccc(Nc2ccc([N+](=O)[O-])c3ncnc(O)c23)cc1)Nc1ccc(C(F)(F)F)cc1Cl` displayed an IC50 in data set [8] of 12 nM.

`CO[C@H]1/C=C/O[C@@]2(C)Oc3c(C)c(O)c4c(O)c(c(/C=N/N5CCN(C)CC5)c(O)c4c3C2=O)NC(=O)/C(C)=C\C=C\[C@H](C)[C@H](O)[C@@H](C)[C@@H](O)[C@@H](C)[C@H](OC(C)=O)[C@@H]1C` [RIFAMPIN]: the “growth inhibition (GI)” value in data set [11] was found to be 99%.

Regarding `N#Cc1c(F)c(F)c2nc(-c3ccc(C(F)(F)F)cc3)nc(N)c2c1F`, in the data set with MCF7 [14], the “Ratio IC50” value is on record as “<=40”.

As to `CC(=O)NS(=O)(=O)c1ccc(-n2c(C)nc3c(I)cc(I)cc3c2=O)cc1`, the Activity in the data set on Rattus norvegicus is recorded as 74%.

`COc1cc2nccc(Oc3ccc(NC(=O)Nc4cc(C)on4)c(Cl)c3)c2cc1OC` [TIVOZANIB]: in the data set with MCF7 [9], the IC50 was 380 nM.

As to `Nc1nnc2c3ccccc3nc(-c3ccccc3Br)n12`, in data set [15], the selectivity ratio turned out to be 5.8.

Consider `CCn1c(=O)c2ccccc2n2nc(SC)nc12`, for which the inhibition at 20 µg/mL in the data set with RAW264.7 was 50%.

The molecule `COc1cccc2c1C(=O)c1c(O)c3c(c(O)c1C2=O)C[C@@](O)(C(=O)CO)C[C@@H]3O[C@H]1C[C@H](N)[C@H](O)[C@H](C)O1` [DOXORUBICIN] yielded a half-inhibitory concentration (IC50) with MCF7 [2] of 5490 nM.

In turn, `COc1cc2c(=O)n(-c3ccccc3)c(=O)[nH]c2cc1NC(=O)NCCc1ccccc1Cl` showed a concentration for 50% growth inhibition (GI50) in data set [16] of 794 nM.

As to `CSc1nc2nc(Cl)c3ccccc3n2n1`, in the data set on RAW264.7, the inhibition at 20 µg/mL worked out at 50%.

In the case of `O=c1c2ccc(Cl)cc2nc(-c2ccccc2)n1/N=C/c1ccc(Cl)cc1`, the concentration for 50% growth inhibition (GI50) in the data set with SNB-75 was 2570 nM. The CC50 in the data set on SNB-75 (read-out: pLC50 (the source's name) (converted)) is 39800 nM. The TGI in the data set with SNB-75 (read-out: pTGI (converted)) is 7590 nM.

As to `Cc1nc2c(I)cc(I)cc2c(=O)n1-c1ccc(S(=O)(=O)Nc2ncccn2)cc1`, the inhibition of growth at 100 µg/mL (with Escherichia coli; in the data set with Pseudomonas aeruginosa; in [12]; in the data set on Staphylococcus aureus) was 61.9% each time.

In the data set with MCF7 [9], `O=c1c2cc(Br)cc(Br)c2nc(-c2ccccc2)n1-c1ccc(C2=NN(c3ccccc3)C(Cc3ccccc3)C2)cc1` (centres undefined) displayed a half-maximal inhibitory concentration (IC50) of 1.7 µg/mL.

As for `COc1cc2ncnc(NCCc3ccccc3F)c2c(OC)c1OC`, the Activity was 31.8% with PC-3 [17] and 11.6% in the data set on PC-3 [18]. Further, the half-inhibitory concentration (IC50) came out at 3200 nM in data set [19], 3100 nM in the data set with Bcap37 [20] and 6200 nM in [13]. For the same molecule, the inhibition at 10 µM in data set [21] was found to be 88.2%; in the data set with Bcap37 [22], 90.4%; in data set [23], 90.6%.

As to `COc1cc2c(=O)n(-c3ccccc3Cl)c(=O)[nH]c2cc1NC(=O)NCCc1ccccc1Cl`, it took 363 nM to inhibit growth in data set [16] by half (GI50).

Take `COc1cc2ncnc(Nc3ccc(NC(=O)c4cccc(O)c4)cc3)c2cc1OC`: inhibition in [24] was half-maximal at 74000 nM (IC50).

The values are drawn from ChEMBL document CHEMBL3351697, “Recent advances in the structural library of functionalized quinazoline and quinazolinone scaffolds: synthetic approaches and multifarious applications” (Eur J Med Chem, 2014).
